Values joined by “and” are separate entries in the source; they are usually repeats but may differ in a detail not shown here. Equal values may be shown once. “Also recorded” adds a separate entry of the source.
Legend:
Tregs = experiment: Single-dose PK/PD study in mice: Tregs in blood and spleen by flow cytometry; format: in vivo, C57BL/6 mice
Excerpt: Following administration, blood and spleen samples are collected at days 1-7 and day 10 post administration. More particularly, at each time point, blood and spleen samples are collected; samples are pooled and assessed for pharmacodynamic analysis of drug action on lymphocyte cell populations by flow cytometry (see e.g. Example 5), expressed as a fold change relative to vehicle control. In addition to changes in cell numbers, functional markers and markers of activity are quantified. Finally, plasma drug concentration is also assessed.

[1] = Solution phase stability by HPLC; format: physicochemical; conditions: 5° C.
Experimental: The mobile phase is 0.2M ammonium acetate (pH 5.5) at a volume ratio of 80:20 with acetonitrile. The diluent/formulation buffer contained 10 mM sodium acetate, 200 mM sodium chloride, 2% sucrose, at a pH of 5.0. […] Samples are stable up to 5 days at 5° C. in solution.
(refrigerated), and −20° C. at 1, 3, 5, and 7-day time points by RP-HPLC as previously described.
Differences between the RUR20kD-IL-2 composition solutions are evaluated against a control, freshly prepared RUR20kD-IL-2 composition sample solution.

Tregs in human PBMC = experiment: pSTAT5 induction in lymphocyte populations of human PBMC (flow cytometry, CyToF); format: cell-based; conditions: in vitro
Experimental: Impaired IL-2 production and regulatory T cell dysfunctions have been implicated as an immunological mechanism in multiple autoimmune diseases. While low-dose IL-2 can be used to stimulate Tregs for clinical benefit, poor pharmacokinetics necessitates daily delivery, adverse events are dose-limiting, and Treg increases are modest and short-lived. […] The affinity to the IL-2 receptor is assessed by surface plasmon resonance. Activity in human PBMC can be measured by pSTAT5 induction in multiple lymphocyte populations using flow cytometry and time-of-flight mass cytometry (CyToF). In vivo activity after subcutaneous administration in C57BL/6 mice or cynomolgus monkey is measured by changes in lymphocyte numbers and activation by flow cytometry. Ex vivo Treg function is determined by the inhibition of Tcon proliferation by isolated splenic Treg. Efficacy is assessed in a model of systemic lupus erythematosus (SLE) using MRL/MpJ-Faslpr mice. […] In mice, a single administration leads to sustained Treg mobilization for 7-10 days in blood and spleen without Tcon activation, an effect concomitant with induction of Treg activation markers and increased ex vivo suppressive capacity. […] Finally, an RUR20kD-IL-2 composition is efficacious in mouse models of SLE.

CD56+ NK cells = experiment: Phase I single ascending dose study in healthy volunteers: NK cells; format: in vivo, human
Experimental: (§1) A double-blind, randomized, placebo-controlled study is conducted to evaluate the safety, tolerability, pharmacokinetics, and pharmacodynamics of single ascending low sub-cutaneous doses of an RUR20kD-IL-2 composition (RUR20kD-IL-2) in healthy volunteers. […] Twelve subjects are randomized to each dose cohort, nine of whom received a single subcutaneous dose of RUR20kD-IL-2 while three received placebo. […] The drug product is supplied in single-use glass vials and stored at 2-8° C. […] Placebo is a commercially available 0.9% sodium chloride solution. A starting dose of 0.3 μg/kg is chosen using the minimally anticipated biological effect level (MABEL) approach and is supported by the no observed adverse effect level (NOAEL) in the most sensitive species from nonclinical toxicology studies.
(§2) The primary objective of the study is to evaluate the safety and tolerability of RUR20kD-IL-2 administered as a single subcutaneous dose. […] In a first phase of the study, immune markers are tested pre-dose up to 20 hours post-dose. Specifically, Tregs, CD4^+-T cells, CD8^+-T cells, natural killer (NK) cells, cytokines, soluble CD25, and RNA are tested in RUR20kD-IL-2- and placebo-receiving cohorts. In subsequent phases, the same immune markers are also tested at 4-, 5-, 6-, 7-, 8-, 10-, 12-, 15-, 18-, 20-, 25-, 30-, 40, and 50-days post-dose.

[2] = system: CD4+FoxP3+CD25bright Tregs; experiment: Phase I single ascending dose study in healthy volunteers: Tregs in peripheral blood by flow cytometry; format: in vivo, human
Experimental: as §1, §2

[3] = Phase I single ascending dose study in healthy volunteers: safety and tolerability; format: in vivo, human; conditions: single SC doses
Experimental: as §1, §2

[4] = system: Balb/c mice (KLH DTH model); experiment: Antigen dependent, T cell-mediated DTH model with KLH rechallenge; format: in vivo
Experimental: To develop the DTH model, Balb/c mice are sensitized with a subcutaneous administration of a model antigen keyhole limpet hemocyanin (KLH) emulsified in complete and incomplete Freund's adjuvant. […] Inflamed ears are subjected to immunohistochemistry (IHC) to quantify percent of FoxP3+ Treg cells post KLH challenge. The specificity of response is assessed after an additional 3-4 weeks with no treatment by either KLH rechallenge or conducting sensitization and challenge with an unrelated antigen ovalbumin (OVA). […] Post ten days of 2nd sensitization, mice are challenged with OVA eight times orally, every alternative day. […] Severity of allergic response is assessed by clinical scoring within 30-45 min of post 8th challenge. Further, serum mast cell protease 1 (MCPT 1) and OVA specific IgE titers are quantified. The percent Treg is determined by flow cytometry in peripheral blood and in spleen.

cGVHD model = experiment: cGVHD model, repeat administration; format: in vivo

(1,3-bis(methoxypoly(ethylene glycol)10kDcarbamoyl)-2-propanoxy)-4-butanamide)interleukin-2) [RUR20kD-IL-2]
time of peak increase in CD4+ Treg cell numbers (Tregs; blood and spleen, single SC dose 0.03-0.3 mg/kg): four days following administration; also recorded: four days after administration | duration of sustained Treg mobilization (Tregs; blood and spleen, single administration): 7 to 10 days | time until Treg levels return to baseline (Tregs; single SC 0.3 mg/kg): 7 to 10 days | day ICOS expression returns to baseline (Tregs; single SC dose): ≤ 7 days | day of peak ICOS expression on Treg (Tregs; single SC dose): 3 days | percentage of proliferating (Ki67) Treg, duration (Tregs; single SC dose): sustained through day 6 | time of maximum of Treg activation markers (CD25 and Foxp3 MFI) (Tregs; single SC dose, highest dose 0.3 mg/kg, 0.3 mg/kg): in the first two days following administration; also recorded: within the first two days following administration | time samples are stable in solution ([1]; 1.0 mg/mL in formulation buffer): up to 5 days | relative difference of mono-PEG, tetra-PEG and penta-PEG species ([1]; 1.0 mg/mL solution pH 5, RT, −20° C. up to 7 days, RP-HPLC): up to 8% | STAT5 phosphorylation in Tregs relative to other lymphocyte subsets (Tregs in human PBMC): increased STAT5 phosphorylation relative to other lymphocyte subsets | increase in NK cells (CD56+ NK cells; highest dose tested (28.0 μg/kg)): 2 fold and 3.5 fold | percentage of CD56+ NK cells expressing Ki67 (CD56+ NK cells; single SC 3.0 μg/kg): ~10% | percentage of CD56+ NK cells expressing Ki67 (CD56+ NK cells; single SC 6.0 μg/kg): 20-30% | percentage of CD56+ NK cells expressing Ki67 (CD56+ NK cells; single SC 9.0 μg/kg): 30-40% | percentage of CD56+ NK cells expressing Ki67 (CD56+ NK cells; single SC 13.5 μg/kg): 30-40% | percentage and absolute numbers of NK cells (CD56+ NK cells; single SC 13.5 and 20.0 μg/kg): small increase in the percentage and absolute numbers of NK cells | mean increase in numbers of CD4+FoxP3+CD25bright Tregs compared to placebo ([2]; single SC 3.0 μg/kg): 3.0 fold | mean increase in numbers of CD4+FoxP3+CD25bright Tregs compared to pre-dose ([2]; single SC 3.0 μg/kg): 3 fold | time of peak (maximal) Treg response ([2]; single SC 3.0 μg/kg): 84 h | mean increase in numbers of CD4+FoxP3+CD25bright Tregs compared to placebo ([2]; single SC 6.0 μg/kg): 3.5 fold | mean increase in numbers of CD4+FoxP3+CD25bright Tregs compared to pre-dose ([2]; single SC 6.0 μg/kg): 3.5 fold | mean increase in numbers of CD4+FoxP3+CD25bright Tregs compared to placebo ([2]; single SC 9.0 μg/kg): 4.1 fold | mean increase in numbers of CD4+FoxP3+CD25bright Tregs compared to pre-dose ([2]; single SC 9.0 μg/kg): 4.1 fold | mean increase in numbers of CD4+FoxP3+CD25bright Tregs compared to placebo ([2]; single SC 13.5 μg/kg): 5.0 fold | mean increase in numbers of CD4+FoxP3+CD25bright Tregs compared to pre-dose ([2]; single SC 13.5 μg/kg): 5 fold | mean increase in numbers of CD4+FoxP3+CD25bright Tregs compared to pre-dose ([2]; single SC 20.0 μg/kg): 8.1 fold | increase in mean peak Treg:CD8 ratio over baseline ([2]; single SC 28 μg/kg): 15 fold | mean peak increase in numbers of CD25-bright Tregs above pre-dose values ([2]; single SC 28 μg/kg): 17 fold | mean peak percentage of CD25bright Tregs ([2]; single SC 28.0 μg/kg, increased from 0.5%): 7.4% | numbers of Tregs versus placebo subjects ([2]; single SC 0.3 and 1.0 μg/kg): no change in the numbers of Tregs; also recorded: No changes in total CD4+ Tregs | total CD4+FoxP3+CD25+ Treg population ([2]; single SC 3.0, 6.0, 9.0 and 13.5 μg/kg): dose-dependent increase in the total CD4+FoxP3+CD25+ Treg population | doses at which increases in Treg activation markers (ICOS and CTLA4) were observed ([2]; single SC dose): ≥ 0.0135 mg/kg | time until CD4+FoxP3+CD25bright Treg levels return to baseline ([2]; single SC dose, 3.0 μg/kg and above): 20 to 25 days | days at which Treg levels peak ([2]; single SC dose, 3.0 to 28.0 μg/kg cohorts): 10 to 12 days | adverse events [3]: primarily limited to mild or moderate (Grade 1 or 2) injection site reactions; also recorded: primarily limited to mild (grade 1) injection site reactions | anti-drug antibodies [3]: no elicitation of anti-drug antibodies; also recorded: none have been detected | dose-limiting toxicities, serious adverse events, deaths, clinically significant abnormalities [3]: No dose-limiting toxicities (DLTs), serious adverse events (SAEs), deaths, or clinically significant abnormalities; also recorded: no dose-limiting toxicities, deaths, or adverse events leading to study discontinuation; also recorded: no dose-limiting toxicities, serious adverse events, deaths, or clinically significant abnormalities in vital signs, electrocardiograms, or laboratory test values | inflammatory response to KLH rechallenge ([4]; SC 0.003-0.3 mg/kg q3d, day 0 through day 8): suppressed the inflammatory response to KLH rechallenge in a dose dependent manner | FoxP3+ Treg cells in inflamed ears (IHC) ([4]; post KLH challenge): significant infiltration of FoxP3+ Treg cells | durability and specificity of suppressive effect on inflammation ([4]; re-challenge post 3-4 weeks without further administration, same and unrelated antigen (OVA)): durable and antigen-specific | Tregs and germinal center B cells in spleen (cGVHD model): increases Tregs and decreases germinal center B cells in spleen | lung dysfunction (cGVHD model): reverses lung dysfunction

Reference: patent US20210205413A1 (Nektar Therapeutics, priority 2018, published 2021)
